{"source": "patent US20250367171A1", "about": "“THERAPEUTIC OR PROPHYLACTIC AGENT FOR PERIPHERAL NEUROPATHIES” (Toray Industries, Inc., priority 2017, published 2025)", "key": {"[1]": {"test_system": "rat experimental autoimmune neuritis (EAN) model", "test": "Mechanical allodynia (von Frey test) in rat EAN model", "format": "in vivo", "details": "day 14, 3 hours after administration, vs vehicle group", "protocol": "EAN model rats were prepared in a manner similar to Example 9. Further, a pseudo-induction animal was prepared by administering physiological saline (Otsuka Pharmaceutical Factory, Inc.) instead of a peptide solution for administration. The day of administration of the peptide solution for administration or physiological saline was designated as day 0 after induction of pathological conditions.\nOn day 14 after induction of pathological conditions, compound 1 (5 or 10 mg/kg) or a solvent thereof (water for injection) was orally administered to rats. Groups were composed of 4 groups: a pseudo-induction and solvent administration group (sham group); a pathological condition-induced and solvent administration group (vehicle group); a pathological condition-induced and compound 1 (5 mg/kg) administration group (compound 1 (5 mg/kg) group); and a pathological condition-induced and compound 1 (10 mg/kg) administration group (compound 1 (10 mg/kg) administration group).\nBeneficial effects on mechanical allodynia were evaluated in a manner similar to Example 5, and this evaluation was performed at 3 hours after administration of compound 1 on day 14 after induction of pathological conditions."}, "[2]": {"test_system": "myelin basic protein (MBP) in co-culture of rat dorsal root ganglion neurons and Schwann cells", "test": "Expression level of MBP in co-culture, Western blotting", "format": "cell-based", "details": "30 μM, day 43 of culture, vs vehicle treatment group", "protocol": "In a manner similar to Example 3, co-culture of rat dorsal root ganglion neurons and Schwann cells was prepared, myelination was induced, and then treatment with compound 1 was performed. Groups were composed of 2 groups: a sterile distilled water treatment group (Vehicle treatment group); and a 30 μM compound 1 treatment group (compound 1 treatment group).\nFor Western blotting, on day 43 from the initial day of cell culture, the co-culture was lysed in a RIPA cell lysis solution, and then the cell lysate was subjected to sodium dodecyl sulfate-polyacrylamide gel electrophoresis. Subsequently, the protein was transferred to a PVDF membrane, and then an MBP band was detected by antibody reaction. Image Lab software (BIO-RAD) was used for quantifying the thus detected band."}, "[3]": {"test_system": "co-culture of rat dorsal root ganglion neurons and Schwann cells", "test": "Myelination in co-culture, MBP immunostaining, number of myelin sheath segments", "format": "cell-based", "details": "30 μM with ascorbic acid treatment, vs vehicle treatment group", "protocol": "The dorsal root ganglion was excised from a fetus of a female SD rat at 15 days of pregnancy, and then neurons and Schwann precursor cells thereof were separately cultured (the initial day of cell culture was designated as Day 1). On day 19 from the initial day of cell culture (Day19), Schwann precursor cells were added to the culture of neurons to initiate co-culture. Myelination was induced by treatment with ascorbic acid (a total of 4 to 5 times in accordance with 2 to 3 times of medium exchange) on the 26th to 40th days (Days 26 to 40) from the initial day of cell culture.\nIn combination with ascorbic acid treatment, treatment with compound 1 dissolved in sterile distilled water (final concentration of 30 μM) was performed 4 to 5 times in total. As a control, treatment with sterile distilled water instead of the compound 1 solution was performed. Groups were composed of 2 groups: a sterile distilled water treatment group (Vehicle treatment group); and a 30 μM compound 1 treatment group (compound 1 treatment group). […]\nFluorescent images of MBP were taken with a fluorescence microscope (DMI4000B, Leica), and then the number of myelin sheath segments (≥25 μm) was analyzed based on the images. […]"}, "[4]": {"test_system": "rat streptozotocin-induced diabetes model", "test": "Nerve conduction velocity in rat streptozotocin-induced diabetes model", "format": "in vivo", "details": "10 mg/kg oral twice a day, days 14 to 28 after induction, vs vehicle group", "protocol": "Streptozotocin (50 mg/kg, Sigma-Aldrich) was administered intravenously to SD rats (6 weeks old, male; CHARLES RIVER LABORATORIES JAPAN, INC.) via the tail vein, thereby preparing the streptozotocin-induced diabetes model. Streptozotocin was dissolved in a citrate buffer to prepare a 25 mg/mL solution, and then administered. A no pathological condition-induced animal was prepared by administering no streptozotocin solution. The day of initial administration was designated as day 1 after induction of pathological conditions.\nOn days 14 to 28 after induction of pathological conditions, a solution containing compound 1 (3 or 10 mg/kg) or a solvent thereof (water for injection) was orally administered to rats twice a day. […]\nNerve conduction velocity was measured within 3 days from the next day of the final administration. […] A-B stimulation and B-C stimulation were designated as distal stimulation and proximal stimulation, respectively, and then the transmission time of stimulation was analyzed on the basis of each lead-out waveform obtained from the electrode at the footpad. Nerve conduction velocity was calculated on the basis of a difference in transmission time between the distal stimulation and the proximal stimulation and the distance between the electrodes."}, "[5]": {"test_system": "rat streptozotocin-induced diabetes model", "test": "Mechanical allodynia (von Frey test) in rat streptozotocin-induced diabetes model", "format": "in vivo", "details": "day 28, 3 hours after administration, vs vehicle group", "protocol": "Streptozotocin (50 mg/kg, Sigma-Aldrich) was administered intravenously to SD rats (6 weeks old, male; CHARLES RIVER LABORATORIES JAPAN, INC.) via the tail vein, thereby preparing a streptozotocin-induced diabetes model. Streptozotocin was dissolved in physiological saline (Otsuka Pharmaceutical Factory, Inc.) to prepare a 25 mg/mL solution and then administered. Further, a pseudo-induction animal was also prepared by administering physiological saline instead of the streptozotocin solution. The initial day of administration was designated as day 0 after induction of pathological conditions.\n[…] Groups were composed of 4 groups: a pseudo-induction and solvent administration group (sham group); a pathological condition-induced and solvent administration group (vehicle group); a pathological condition-induced and compound 1 (10 mg/kg) administration group (compound 1 (10 mg/kg) group); and a pathological condition-induced and compound 1 (30 mg/kg) administration group (compound 1 (30 mg/kg) group).\nBeneficial effects on mechanical allodynia were evaluated in a manner similar to Example 5, and this evaluation was performed at 3 hours after administration of compound 1 on day 28 after induction of pathological conditions."}}, "data": [{"smiles": "CN(C)C1CCN(C(=O)C[C@H](O)c2nccn2C)CC1", "note": "[Compound 1, (S)-1-(4-(dimethylamino)piperidin-1-yl)-3-hydroxy-3-(1-methyl-1H-imidazol-2-yl)propan-1-one]", "values": [{"measurement": "50% response threshold in von Frey test (mechanical allodynia)", "setting": "[1]; 5 mg/kg oral single dose", "result": "Significant increases in 50% response threshold"}, {"measurement": "50% response threshold in von Frey test (mechanical allodynia)", "setting": "[1]; 10 mg/kg oral single dose", "result": "Significant increases in 50% response threshold"}, {"measurement": "myelin sheath marker protein MBP expression level", "setting": "[2]", "result": "increases in the myelin sheath marker protein, MBP"}, {"measurement": "number of myelin sheath segments", "setting": "[3]", "result": "Increased number of myelin sheath segments"}, {"measurement": "nerve conduction velocity", "setting": "[4]", "result": "Significant increases in nerve conduction velocity"}, {"measurement": "50% response threshold in von Frey test (mechanical allodynia)", "setting": "[5]; 10 mg/kg oral single dose", "result": "significant increases in 50% response threshold"}, {"measurement": "50% response threshold in von Frey test (mechanical allodynia)", "setting": "[5]; 30 mg/kg oral single dose", "result": "significant increases in 50% response threshold"}]}]}
